Experimental data as given in US9173878B2, “Brain function improving agent” (Tohoku University, priority 2012, dated 2015).
Structures can show the parent of a compound that is named as a salt. Values belong to the compound of their own block, whether it stands above or below them.

How the values were obtained:
[1] = tested on: non-transfected mouse neuroblastoma cell line Neuro2A; test: Calcium imaging (Fura-2) in T-type calcium channel non-expressing Neuro2A cells; type: cell-based
Method: (§1) The cells of mouse neuroblastoma cell line Neuro2A were purchased from the Human Science Research Resources Bank (#IFO50081, Osaka, Japan). […] Then, the Neuro2A cells were seeded to a glass bottom dish at a concentration of 1 to 2×10^6 cell/φ35-mm dish, and cultivated for 24 hours in a standard culture medium, and the cells were transfected using Lipofectamine 2000 (Invitrogen, Carsbad, Calif., USA) and using a plasmid vector containing a T-type calcium channel (Cav 3.1) genes (serum-free culture of Lipofectamine 2000: DNA=1 μl: 1 μg, 1.5 ml). The T-type calcium channel (Cav 3.1) gene, the plasmid vector pCMV-SPORT6, and the Lipofectamine 2000 were respectively purchased from OriGene Technologies, Inc., Thermo Fisher Scientific Ltd., and Invitrogen, and the transfection was performed according to the protocol attached to Lipofectamine 2000 other than the rate adjustment of the Lipofectamine 2000 and plasmid vector. The serum-free culture was replaced with a standard culture 6 hours after transfect, and calcium imaging (calcium concentration measurement) was performed after Cav 3.1 expression was confirmed after 48 hours of culture. T-type calcium channel expressing Neuor2A cells were dispersed in a glass bottom dish, and 2.5 μM of Fura-2-AM (Sigma, St Louis, Mo., USA) was added to the dish in perfusion (Krebs-Hepes buffer; KRH), then the dish was incubated at 37° C. for 30 minutes. A Fura-2-AM-free KRH was replaced with perfusion, and the Neuro2A cells were stimulized with SAK3 (100 pM) as the intracellular calcium was measured with a fluorescent microscope, then the cells were further stimulized with nicotin (1 μM), ATP (0.1 μM), DHPG (20 μM), as necessary.

[2] = tested on: olfactolectomy mouse (OBX mouse); test: Y maze test in olfactolectomized (OBX) mouse; type: in vivo; conditions: 1 mg/kg administered into the abdominal, 30 minutes before test
Method: (§2) A 10 weeks old DDY male mouse (Nippon SLC, Hamamatsu, Japan) was used in the experiment. The animal was bred in an animal experiment facility in the Pharmaceutical Research Department of the Tohoku University Graduate School under a certain condition (temperature 22±2° C., 12 h: 12 h light-dark cycle) by freely providing water and a feed. Note that the handling of animals and animal experiments in the present paper was performed with an approval of Tohoku University Experimental Animal Committee and under the Tohoku University Animal Experiment Guideline.
(§3) An olfactolectomy mouse (OBX mouse) was prepared using a DDY male mouse. The olfactolectomy operation was performed under the condition of anesthesia by pentobarbital sodium (50 mg/kg i.p.; Dainippon, Osaka, Japan). […]
Y maze test: A Y maze test was performed to assess the spontaneous action amount and the spatial activity memory of a mouse. The mouse was place at the end of one of the arms in the Y maze and allowed to freely explore the maze for 8 minutes, then the positions of the arms that the mouse travelled were recorded in the order of selection. The number of times that the mouse travelled to each arm in the time of measurement was counted as total arm entries. Further, the combinations of consecutively selecting 3 different arms were counted as No. of alternation. […]

CaMKII [3] = test: CaMKII self-phosphorylation (activation) in hippocampus CA1 region, immunoblot; type: cell-based, mouse; conditions: hippocampus CA1 region 60 minutes after LTP, 100 pM
Method: The brain of a male mouse C57BL/6 (10-12 weeks old) was sagitally sectioned, then a coronal section brain slice (400 μm) including a hippocampus CA1 region was prepared. The hippocampus slice was recovered in an artificial cerebrospinal fluid (126 mM NaCl, 5 mM KCl, 26 mM NaHCO3, 1.3 mM MgSO4-7H2O, 1.26 mM KH2PO4, 2.4 mM CaCl2-2H2O, 10 mM glucose) saturated by a 95% O2/5% CO2 gas at 34° C. for 2 hours. The hippocampus slice was transferred to a measurement chamber, and ST101 (100 pM), SAK1 (100 pM), SAK3 (100 pM) were added to the artificial cerebrospinal fluid, and perfused. Then, the Schaffer branch to be input to the hippocampus CA1 region and the commissural fibers were stimulated by stimulus electrodes, and the postsynaptic potential (fEPSP; field excitatory postsynaptic potential) in the CA1 region induced thereby was measured. […]
The above frozen mouse brain slice segment (hippocampus CA1 region) is used for homogenization on ice by adding 150 μL homogenizing buffer (50 mM Tris-HCl pH 7.5, 0.5% Triton X-100, 4 mM EGTA, 0.5 M NaCl, 10 mM EDTA, 1 mM Na3VO4, 30 mM sodium pyrophosphate, 50 mM NaF, 1 mM DTT, 100 nM calyculin A, 50 μg/mL leupeptin, 25 μg/mL pepstatin A, 50 μg/mL trypsin inhibitor) per sample. […] The protein concentration was measured by the Bradford method using a part of the supernatant. […]

[4] = tested on: olfactolectomy mouse (OBX mouse); test: Acetylcholine liberation in hippocampus by microdialysis; type: in vivo
Method: The amount of acetylcholine liberated in hippocampus is measured by the microdialysis method. The set up of guide cannula and dialysis probe (AG-4; Eicom, Kyoto, Japan) was conducted by fixing the mouse to the brain stereotaxis apparatus under the condition of maintaining anesthesia by 1.5% halothane (Takeda Chemical Industries Ltd., Osaka, Japan), setting up a guide cannula to the left hippocampus (AP=+3. L=+3, V=-1.8), and inserting a dialysis probe to the guide cannula. The collection of a intracerebral Ach sample from a mouse hippocampus was performed a day after the probe set up operation. After the recovery of the mouse from the operation was confirmed, the probe was connected to a micropump (ESP-64; Eicom) under an unanesthetized state and free activity, and a Ringer's solution (1.3 mM CaCl2. 3 mM KCl, 146 mM NaCl and 1 mM MgSO4) was introduced at a flow rate of 2 μL per minute. The dialysis sample was collected every 19.5 minutes and inserted to the acetylcholine separation column using an autoinjector (EAS-20, Eicom), and a system for a trace element analysis of biological samples (HTEC-500; Eicom) was used for analysis. SAK3 was intraperitoneally administered at 40 minutes before test (at the -40 minutes point in the graph of FIG. 8). […]

[5] = target: T1, T-type calcium channel (Cav 3.1) (Homo sapiens, UniProt O43497); test: Calcium imaging (Fura-2) in Cav 3.1 gene-transfected Neuro2A cells; type: cell-based, mouse; conditions: for change in calcium concentration after SAK3 addition: Cav3.1 expressing cells
T1 construct: Thermo Fisher Scientific Ltd. (vector pCMV-SPORT6); host or cells: mouse neuroblastoma cell line Neuro2A, transient transfection with Lipofectamine 2000
Method: as §1

CaMKII [6] = test: CaMKII self-phosphorylation (activation) in cultured mouse cerebral cortex cell, immunoblot; type: cell-based; conditions: 100 pM, 30 minutes of incubation
Method: The above frozen mouse brain slice segment (hippocampus CA1 region) is used for homogenization on ice by adding 150 μL homogenizing buffer (50 mM Tris-HCl pH 7.5, 0.5% Triton X-100, 4 mM EGTA, 0.5 M NaCl, 10 mM EDTA, 1 mM Na3VO4, 30 mM sodium pyrophosphate, 50 mM NaF, 1 mM DTT, 100 nM calyculin A, 50 μg/mL leupeptin, 25 μg/mL pepstatin A, 50 μg/mL trypsin inhibitor) per sample. Then, centrifugation was performed using a refrigerated centrifuge (14,000×g, 10 minutes, 4° C.), after which 100 μL of supernatant was collected and 20 μL of 6× Laemmli buffer was added to the supernatant to be boiled at 100° C. for 3 minutes, to form an immunoblotting sample. The protein concentration was measured by the Bradford method using a part of the supernatant. Reagants containing the same amount of protein were added to 10% SDS-polyacrylamido electrophoresis gel (SDS-PAGE gel), and SDS-PAGE was performed at 80 mA per 1 sheet of gel for 180 minutes. After separation by electrophoresis, transcription to a PVDF membrane was performed at 70 V for 120 minutes. […] After washing with a TTBS solution, ECL detection system (GE healthcare) was used to induce luminescence of HRP that labels the second antibody, and the X-ray film (Fuji Medical X-ray Film, Fuji Film) was sensitized to detect the band. An NIH image analysis software was used for a quantification analysis of the immunoreaction product.
The dispersion cultivation of a mouse cerebral cortex cell was performed by a previously reported method (Fukunaga et al., J. Biol. Chem. 267, 22527-22533, 1992). […] The frozen cerebral cortex cells were subjected to quantification analysis of the activation state (self-phosphorylation reaction) of CaMKII by the immunoblotting method after homogenization, similarly to the method in Test Example 2.

[7] = tested on: olfactolectomy mouse (OBX mouse); test: Novel object recognition test in olfactolectomized (OBX) mouse; type: in vivo; conditions: 1 mg/kg administered into the abdominal, 30 minutes before test
Method: as §2
as §3, with “Japan). The mouse was fixed to a brain brace, and the skull bone above the olfactory bulb was drilled to open a hole of 1 mm diameter.” for “Japan).”
Novel object recognition test: The present test uses a mouse's characteristic of preferring novel objects, and the mouse was allowed to freely explore the device in which 2 objects are placed for 10 minutes (training session). […] The numbers of contacts for the 2 objects in the training session and the trial session were measured. The percentage (%) of the number of contacts of the novel object against the number of total contacts in the trial session was calculated as the Discrimination index.

[8] = tested on: mouse hippocampus CA1 region; test: Long-term potentiation of synaptic transmission (LTP), fEPSP in hippocampus slice; type: cell-based; conditions: 100 pM in artificial cerebrospinal fluid
Method: The brain of a male mouse C57BL/6 (10-12 weeks old) was sagitally sectioned, then a coronal section brain slice (400 μm) including a hippocampus CA1 region was prepared. The hippocampus slice was recovered in an artificial cerebrospinal fluid (126 mM NaCl, 5 mM KCl, 26 mM NaHCO3, 1.3 mM MgSO4-7H2O, 1.26 mM KH2PO4, 2.4 mM CaCl2-2H2O, 10 mM glucose) saturated by a 95% O2/5% CO2 gas at 34° C. for 2 hours. The hippocampus slice was transferred to a measurement chamber, and ST101 (100 pM), SAK1 (100 pM), SAK3 (100 pM) were added to the artificial cerebrospinal fluid, and perfused. Then, the Schaffer branch to be input to the hippocampus CA1 region and the commissural fibers were stimulated by stimulus electrodes, and the postsynaptic potential (fEPSP; field excitatory postsynaptic potential) in the CA1 region induced thereby was measured. After measurement, just the hippocampus CA1 region was sliced from the slice segment, and frozen for preservation at −80° C. for measurement with immunoblotting.

Alzheimer's disease = conditions: treating Alzheimer's disease; cited from earlier work

T1 sequence (O43497 whole entry): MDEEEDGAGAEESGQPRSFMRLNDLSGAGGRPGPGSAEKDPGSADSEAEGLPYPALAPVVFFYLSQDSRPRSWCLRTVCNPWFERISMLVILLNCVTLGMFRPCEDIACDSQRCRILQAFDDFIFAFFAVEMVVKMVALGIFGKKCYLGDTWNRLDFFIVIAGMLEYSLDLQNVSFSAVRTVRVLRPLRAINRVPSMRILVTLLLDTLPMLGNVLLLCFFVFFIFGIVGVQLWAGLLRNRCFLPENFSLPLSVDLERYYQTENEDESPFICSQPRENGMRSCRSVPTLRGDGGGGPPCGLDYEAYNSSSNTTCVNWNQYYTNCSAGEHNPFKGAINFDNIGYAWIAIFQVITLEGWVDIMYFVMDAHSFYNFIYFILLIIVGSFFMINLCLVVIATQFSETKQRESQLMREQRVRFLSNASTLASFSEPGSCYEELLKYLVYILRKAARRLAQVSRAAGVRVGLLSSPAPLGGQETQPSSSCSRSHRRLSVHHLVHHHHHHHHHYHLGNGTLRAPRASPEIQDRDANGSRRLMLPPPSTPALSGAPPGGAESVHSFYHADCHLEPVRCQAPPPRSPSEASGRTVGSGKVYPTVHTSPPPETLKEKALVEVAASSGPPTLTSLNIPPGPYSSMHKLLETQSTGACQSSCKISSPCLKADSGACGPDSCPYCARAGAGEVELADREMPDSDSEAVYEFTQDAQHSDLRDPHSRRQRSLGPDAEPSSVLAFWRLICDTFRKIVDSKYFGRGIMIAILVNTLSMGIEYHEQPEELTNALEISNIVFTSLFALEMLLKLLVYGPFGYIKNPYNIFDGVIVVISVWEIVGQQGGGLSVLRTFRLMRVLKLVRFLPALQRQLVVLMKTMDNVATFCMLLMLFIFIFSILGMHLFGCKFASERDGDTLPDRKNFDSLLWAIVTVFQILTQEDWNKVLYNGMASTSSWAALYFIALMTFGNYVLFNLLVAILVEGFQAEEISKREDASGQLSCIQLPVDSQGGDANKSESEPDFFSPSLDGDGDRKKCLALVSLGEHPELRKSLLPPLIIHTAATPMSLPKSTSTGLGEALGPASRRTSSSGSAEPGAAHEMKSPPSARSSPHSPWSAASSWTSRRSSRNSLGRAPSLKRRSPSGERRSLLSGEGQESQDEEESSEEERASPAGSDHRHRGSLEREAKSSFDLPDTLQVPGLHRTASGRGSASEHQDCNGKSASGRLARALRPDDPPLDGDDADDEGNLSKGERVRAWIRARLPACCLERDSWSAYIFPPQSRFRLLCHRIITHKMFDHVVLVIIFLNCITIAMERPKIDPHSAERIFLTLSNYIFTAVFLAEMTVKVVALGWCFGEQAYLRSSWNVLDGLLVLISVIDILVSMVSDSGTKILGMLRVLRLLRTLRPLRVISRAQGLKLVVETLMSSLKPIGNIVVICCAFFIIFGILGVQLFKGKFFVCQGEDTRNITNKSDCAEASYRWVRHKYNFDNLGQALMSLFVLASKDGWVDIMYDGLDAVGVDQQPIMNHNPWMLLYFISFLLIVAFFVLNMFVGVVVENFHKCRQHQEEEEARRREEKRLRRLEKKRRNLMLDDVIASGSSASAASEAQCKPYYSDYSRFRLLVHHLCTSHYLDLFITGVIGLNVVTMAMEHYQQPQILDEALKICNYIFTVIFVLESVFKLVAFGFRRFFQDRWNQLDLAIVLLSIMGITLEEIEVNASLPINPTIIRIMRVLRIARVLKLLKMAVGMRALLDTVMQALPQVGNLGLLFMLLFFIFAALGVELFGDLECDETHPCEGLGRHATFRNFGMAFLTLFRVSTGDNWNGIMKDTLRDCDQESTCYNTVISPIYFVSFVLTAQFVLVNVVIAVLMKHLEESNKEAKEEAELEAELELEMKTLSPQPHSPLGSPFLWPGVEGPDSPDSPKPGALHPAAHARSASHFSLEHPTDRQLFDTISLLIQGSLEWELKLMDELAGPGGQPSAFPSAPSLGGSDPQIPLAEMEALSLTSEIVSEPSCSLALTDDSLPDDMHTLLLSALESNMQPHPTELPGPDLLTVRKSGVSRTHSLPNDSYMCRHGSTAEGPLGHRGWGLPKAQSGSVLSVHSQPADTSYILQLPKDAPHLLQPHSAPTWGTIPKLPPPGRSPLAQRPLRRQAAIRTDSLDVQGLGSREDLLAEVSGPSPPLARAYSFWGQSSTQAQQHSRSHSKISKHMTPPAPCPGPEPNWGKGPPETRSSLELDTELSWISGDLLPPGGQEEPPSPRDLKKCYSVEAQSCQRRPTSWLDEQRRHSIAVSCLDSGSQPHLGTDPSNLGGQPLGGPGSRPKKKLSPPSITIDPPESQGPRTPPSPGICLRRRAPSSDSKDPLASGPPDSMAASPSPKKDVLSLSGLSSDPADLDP

amount of influent calcium ion induced by adding ATP ([5]; ATP 0.1 μM, under the presence of SAK3 100 pM, transfected cells): not potentiated
increase in amount of influent calcium ion induced by SAK3 ([5]; Cav3.1 transfected cells, addition of mibefradil (10 μM)): nearly cancelled out
amount of influent calcium ion induced by adding DHPG ([5]; DHPG 20 μM, under the presence of SAK3 100 pM, transfected cells): not potentiated
activation of T-type voltage dependent calcium channel relative to ST101 ([5]; compared with ST101): ≥ 10 folds
increase of the amount of influent calcium ion induced by nicotin under the presence of SAK3, transfected cells relative to non-transfected cells ([5]; nicotin 1 μM, SAK3 100 pM): 2 folds
effect of SAK3 on amount of influent calcium ion induced by nicotin ([5]; nicotin 1 μM, mibefradil (10 μM) added): cancelled out
SMILES: CCOC(=O)C1=C(N2CCCCC2)C2(CC1=O)C(=O)N=C1C(C)=CC=CN12 (stereo not shown) [SAK3]
change in calcium concentration after SAK3 addition ([1]; Cav3.1 non-expressing cell, SAK3 100 pM): there was no change in the calcium concentration
amount of intracellular influent calcium ion induced by SAK3 ([1]; Cav3.1 non-transfected cells, SAK3 100 pM): do not show the change in the amount of influent calcium ion
improvement of cognitive dysfunction by olfactolectomy (Y maze test) [2]: almost completely improved
phosphorylated CaMKII / CaMKII activation (CaMKII [3]): an increase of phosphorylated CaMKII and a potentiation of CaMKII activation were confirmed
amount of acetylcholine liberated by nicotine in hippocampus ([4]; 1.0 mg/kg administration group, compared with Sham group): above that of the Sham group
amount of acetylcholine liberated by nicotine in hippocampus ([4]; intraperitoneal, 40 minutes before test, versus group without SAK3): increased
change in calcium concentration after SAK3 addition ([5]; SAK3 100 pM): An increase in calcium concentration was confirmed
change in calcium concentration after SAK3 addition ([5]; SAK3 100 pM, mibefradil (10 μM) added): no increase in calcium concentration by SAK3 was confirmed
amount of intracellular influent calcium ion induced by SAK3 ([5]; Cav3.1 transfected cells, SAK3 100 pM): showed an increase in the amount of influent calcium ion
phosphorylated CaMKII / activation of CaMKII (CaMKII [6]): increased phosphorylated CaMKII
improvement of cognitive dysfunction by olfactolectomy (novel object recognition test) [7]: almost completely improved
LTP potentiation effect [8]: a strong potentiation effect was observed

SMILES: CCOC(=O)C1=C(N2CCCCC2)C2(CC1=O)C(=O)N=C1C(C)=CC(C)=CN12 (stereo not shown) [SAK9]
phosphorylated CaMKII / activation of CaMKII (CaMKII [6]): increased phosphorylated CaMKII

SMILES: COc1cc2c(cc1OC)C(=O)C(CC1CCN(Cc3ccccc3)CC1)C2 (stereo not shown) [Donepezil hydrochloride]
efficacy ratio of the clinical result (Alzheimer's disease): about 50%

SMILES: CCOC(=O)C1=C(N2CCCCC2)C2(CC1=O)C(=O)N=C1C=CC=CN12 (stereo not shown) [SAK8]
phosphorylated CaMKII / activation of CaMKII (CaMKII [6]): increased phosphorylated CaMKII

SMILES: CN1CCCC1c1cccnc1 (stereo not shown) [nicotin, reference compound]
change in calcium concentration after adding nicotin ([1]; Cav3.1 non-expressing cell, nicotin 1 μM): an increase in the calcium concentration after adding nicotin was confirmed

SMILES: CCOC(=O)C1=C(SC)C2(CC1=O)C(=O)N=C1C=CC=CN12 (stereo not shown) [SAK1]
phosphorylated CaMKII / CaMKII activation (CaMKII [3]): an increase of phosphorylated CaMKII and a potentiation of CaMKII activation were confirmed
LTP potentiation effect [8]: a strong potentiation effect was observed

SMILES: O=C1N=C2C=CC=CN2C12Cc1ccccc1C2 [ST101, reference compound]
LTP potentiation effect [8]: does not show a strong LTP potentiation effect
